Entries after “also recorded” stand apart in the source; their conditions may differ.
How the values were obtained:
fetal lung explants = assay: Fetal murine lung explant culture (hanging drop), stereomicroscopy and H/E histology of differentiation; type: cell-based, mouse
Description: To provide proof of evidence, an in vitro explant lung culture (obtained from a mouse) is used. Generation of new alveolar tissue in patients is stimulated by activation or re-activation of alveolar bud formation. Growth and branching of alveolar buds, followed by transformation into alveolar ducts, sacs and pouches, results in the establishment of pulmonary acini.
As a proof of evidence, it is, therefore, shown that treatment with selected molecules involved in a Wnt pathway inhibits the differentiation process of alveolar differentiation. Inhibition of this differentiation process is achieved by applying a purified Wnt3a polypeptide to an in vitro lung explant culture of 13-day-old (E13) mouse embryos.
(§1) The (fetal) murine lung explant culture was generated according to our standard protocol. Briefly, complete lungs or individually dissected lung lobes were isolated from fetal mice and cultured for one to five days in a hanging drop culture system. The Wnt3a polypeptide was administered to the culture medium in different concentrations, ranging from 0 to 4000 ng/ml. The effect of this treatment was monitored by stereomicroscopy. The lung explant cultures were subsequently fixed for 30 minutes in 10% paraformaldehyde (PFA), 30 minutes in 2% PFA and 30 minutes in 4% PFA. After fixation, the lung explants were dehydrated through an increasing series of 2-isopropanol and subsequently embedded in paraffin. For the histological analysis, 4 μm thick sections were cut and stained with Hematoxilin and Eosin using standard techniques.
As a source for Wnt3a, recombinant mouse Wnt3a from R&D Systems (catalog nr. 1324-WN, R&D Systems, Inc. Minneapolis USA) was used. As culture medium, DMEM/HAM's F12 (1:1) from Biochrom AG, catalog nr. FG 4815, was used.

beta-catenin = assay: Nuclear translocation of beta-catenin, immunohistology of fetal lung explants; type: cell-based, mouse
Protocol: FIG. 8: Nuclear translocation of beta-catenin by Wnt3A in fetal lung explants. The translocation of beta-catenin was determined using immunohistological analysis of histological sections from fetal lung explants (E12.5), cultured for two days in the presence of Wnt3a at a concentration of 0 ng/ml (Panel A); 10 ng/ml (Panel B); 50 ng/ml (Panel C); 250 ng/ml (Panel D); 500 ng/ml (Panel E) and 1000 ng/ml (Panel F).
The primary antibodies used for the immunohistochemical detection was for beta-catenin; anti beta-catenin IgG, mAb, clone 14 from BD-Transduction Laboratories, for tubulin-beta mAb clone TBN05 (Tub2.1) from Neomarkers, for BrdU; anti-Bromodeoxyuridine (BrdU), mAb clone ZBU30 from Zymed Laboratories Inc.
In order to determine whether Wnt3A actually elevates the Wnt-signaling pathway in these explants, histological sections were stained for beta-catenin, the intracellular factor, which, together with members of the high mobility group (HMG) of transcription factors such as TCF1 and LEF, transducer the Wnt signal to the nucleus.

[1] = test system: mesenchyme and epithelium of fetal lung explants; assay: TUNEL assay on sections of fetal lung explants; type: cell-based, mouse
Protocol: The induction of apoptosis was detected using the “In Situ Cell Death Detection Kit,” of Roche (Cat. No. 11 684 817 001) according to the manufacturer's instructions.
To further analyze the effect of Wnt3a upon apoptosis and proliferation, lung explants were cultured for four days in the presence of 0, 4, 20, 100, 250, 500, 750 and 1000 ng/ml. In order to identify whether after Wnt3A treatment cells are viable and active, proliferating BrdU was added to the culture medium, which is incorporated in newly synthesized DNA of active proliferating cells, two hours before the fixation of the lung explants. […] To better investigate this effect, histological sections were analyzed with the TUNEL assay, which detects fragmented DNA present in apoptotic cells (material and methods).

[2] = test system: Wnt-signaling pathway in normal human fetal lung fibroblast cell line HFL-1; assay: TopFlash/FopFlash reporter assay, HFL-1; type: cell-based; conditions: HFL-1, 20 hours
Protocol: Primary mouse fibroblasts isolated from E12.5 lung explants, the human epithelial lung carcinoma cell line A549 cells (ATCC CCL-185), the human epithelial lung adenocarcinoma cell line Calu-3 (ATCC_HTB-55) and the normal human fetal lung fibroblast cell line HFL-1 cells (ATCC—153) were cultured in 96-well plates and transfected with the TopFlash and FopFlash reporter constructs using lipofectamine 2000 according to the manufacturer's instructions. As an internal control for transfection efficiency, a constitutive renilla luciferase reporter (Promega) was cotransfected. The cells were transfected with the above-mentioned reporter constructs and simultaneously treated with different concentrations of Wnt3A for 20 hours, after which the cells were lysed and luciferase expression was measured using a Berthold luminometer for two seconds (V. Korinek et al., Mol. Cell. Biol. 18:1248-1256, 1998). […]
In order to analyze if Wnt3A is able to activate the Wnt signal-transduction pathway in humans, we stimulated three different cell lines from human origin with Wnt3A and measured the response with the TopFlash/FopFlash reporter assay. The three human lung-derived cell lines analyzed were the lung epithelial carcinoma cell line A549 (FIG. 9B), the normal lung fibroblast line HFL-1 (FIG. 9C), and the epithelial adenocarcinoma cell line calu-3 (FIG. 9D).

[3] = test system: mesenchyme and epithelium of fetal lung explants; assay: Apoptosis in lung explants by H/E histology (picnotic nuclei); type: cell-based, mouse
Protocol: as §1
In order to determine the concentration range in which the Wnt3a polypeptide is effective, total lung explants were cultured in the presence of Wnt3a in a range of 0 ng/ml, 500 ng/ml, 750 ng/ml, 1000 ng/ml, 2000 ng/ml and 4000 ng/ml (FIG. 2, Panels A-R).
After two days of culture, these lung explants were fixed and embedded in paraffin for immunohistological analysis.
To more exactly determine the concentration of Wnt3a that is effective upon lung development, differentiation and apoptosis, fetal lung explants were cultured for a longer period (four days) in the presence of lower concentrations of Wnt3a, i.e., 0 ng/ml, 4 ng/ml, 20 ng/ml, 100 ng/ml and 500 ng/ml (FIG. 4, Panels A-O).

With Wnt3a the “differentiation of the epithelium” value (fetal lung explants; 500 ng/ml, four days) was “delayed; also recorded: undifferentiated character of the epithelium”, the “differentiation of the primordial lung epithelium (histology)” value (fetal lung explants; 1000 ng/ml, five-day-old cultures) was “arrested at a stage comparable to that of the start of the culture (E13); also recorded: strong inhibitory effect on the development and differentiation of the fetal lung; also recorded: arrest of alveolar differentiation” and the “effect on cell viability” value (fetal lung explants; 2000 ng/ml) was “affects the viability of all cells”. For the same substance, the “effect on lung development (stereomicroscopy)” value (fetal lung explants; 2000 ng/ml and 4000 ng/ml, after one day) was “deleterious effect on lung development”, the “complete block of differentiation of fetal lung development” value (fetal lung explants; 4, 20, 100 and 500 ng/ml, four days) was “None of these concentrations was effective in completely blocking the differentiation” and the “lung differentiation (stereomicroscopy)” value (fetal lung explants; E13 lung explants, 1000 ng/ml, after 16 hours) was “total block of lung differentiation”. For the same substance, the “differentiation and alveolar development (stereomicroscopy)” value (fetal lung explants; E13 lung explants, 1000 ng/ml, five days culture) was “no significant differentiation and alveolar development could be observed”, the “effects at the level of apoptosis and differentiation compared to control” value (fetal lung explants; between 4 and 20 ng/ml, four days) was “no clear effects were visible” and the “concentration at which differentiation was strongly retarded with many picnotic cells” value (fetal lung explants; histological examination at day 4) was “above 100 ng/ml”. The “concentration that does not show clear morphological changes” value (fetal lung explants; lung explants) was “below 1 ng/ml”, the nuclear beta-catenin (beta-catenin; 10-1000 ng/ml, within the first two days, mesenchymal cells around lung buds) was “dosage-dependent increase in nuclear beta-catenin” and the nuclear beta-catenin (beta-catenin; 250 and 500 ng/ml, two days) was “maximal; also recorded: strong induction of nuclear beta-catenin”. For the same substance, the nuclear beta-catenin (beta-catenin; four- and eight-day cultures) was “had disappeared”, the TUNEL-positive epithelial cells ([1]; 1000 ng/ml, four days) was “almost none of the epithelial cells were TUNEL positive” and the “apoptosis in the mesenchyme (TUNEL)” value ([1]; 1000 ng/ml, four days) was “massive induction of apoptosis in the mesenchyme”. For the same substance, the “mesenchymal cells picnotic and TUNEL positive” value ([1]; 1000 ng/ml, four days) was about 100%, the TUNEL-positive epithelial cells ([1]; 1000 ng/ml, four days, listed as Wnt3A) was “unaffected epithelium” and the “concentration at which TUNEL-positive (apoptotic) cells increase” value ([1]; four days of culture) was “above 100 ng/ml”. The TopFlash/FopFlash reporter response [2] was “respond to Wnt3A in a dosage-dependent manner; also recorded: strong induction of the Wnt-signaling pathway”, the “apoptosis in the epithelium” value ([3]; 750 ng/ml, two days) was “no sign of apoptosis whatsoever” and the “apoptosis in the mesenchyme” value ([3]; 750 ng/ml, two days) was “clearly detectable but not yet abundant”. The “apoptosis in the epithelium” value ([3]; 1000 ng/ml, five days) was “contained no apoptotic cells”, the “apoptosis in the mesenchyme” value ([3]; 1000 ng/ml, five days) was “most of the mesenchymal cells surrounding the epithelium displayed picnotic nuclei; also recorded: massive induction of apoptosis in the mesenchyme” and the “apoptosis in the epithelium” value ([3]; 1000 ng/ml, two days) was “not detectable”. For the same substance, the “apoptosis in the epithelium” value ([3]; between 100 and 500 ng/ml, four days) was “no sign of apoptosis could be detected”, the “concentration at which apoptosis in the epithelium is induced” value ([3]; conclusion) was “higher than 1000 ng/ml” and the “concentration at which apoptosis in the mesenchyme is induced” value ([3]; conclusion) was “greater than 100 ng/ml”.

From patent US20100203634A1, “Inhibition of stem cell differentiation, enhancement of proliferation and selective induction of apoptosis by Wnt factors” (DeltaCell B.V., priority 2003, published 2010)
